Literature values, collected in publication PMC9050719 (RSC Advances, 2020).

Columns and labels:
[1] = prodrug of MPA
[2] = test system: mice

For COc1c(C)c2c(c(O)c1C/C=C(\C)CCC(=O)OCCN1CCOCC1)C(=O)OC2 [Mycophenolate mofetil], the Bioavailability [1] is given as ~90%.
For COc1c(C)c2c(c(O)c1C/C=C(\C)CCC(=O)O)C(=O)OC2 [MPA, Mycophenolic acid], the “Administered dose giving profound toxicity in mice” value [2] is listed as “over 1000 mg per kg per day”.
